Laboratory results reported in patent publication US20040171489A1, “Synergistic active compound combinations for controlling harmful plants” (priority 1998, published 2004).

Tests used:
[1] = tested on: winter barley; experiment: Example 9 field trials, application 1-3 leaf stage broad-leaved weeds: crop damage; assay type: in vivo, Hordeum vulgare; settings: 100 g of ai/ha; 120 to 160 days after application
Experimental: (§1) The herbicidal efficacy of the active compounds or active compound mixtures was scored visually using the treated plots in comparison to untreated control plots. The damage and development of all above-ground parts of the plants were recorded. Scoring was carried out using a percentage scale (100% effect=all plants killed; 50% effect=50% of the plants and the green parts of the plants killed; 0% effect=no noticeable effect=like control plot. The scores of in each case 4 plots were averaged.
(§2) If the observed activity values already exceed the formal sum of the values for the trials with the individual applications, they also exceed the expected value according to Colby which is calculated using the following formula and which is likewise considered to be an indication of synergism (cf. S. R. Colby; in Weeds 15 (1967) p. 20 to 22):
(§3) Crop plants were grown outdoors on plots under natural outdoor conditions, and seeds or rhizome pieces of typical harmful plants were laid out or the natural weed growth was utilized. Treatment with the compositions according to the invention was carried out after the harmful plants had emerged and the crop plants were, generally, at the 2- to 4-leaf stage; in some cases (as stated), application of individual active compounds or active compound combinations was carried out pre-emergence (cf. Section 1) or post-emergence (cf. Section 2) or as a sequential treatment partly pre-emergence and/or post-emergence. After the application, for example 2, 4, 6 and 8 weeks after the application, the effect of the preparations was scored visually by comparison with untreated controls (cf. scoring in Section 1). In the field trial as well, the compositions according to the invention have synergistic herbicidal activity against a broad spectrum of economically important weed grasses and broad-leaved weeds. […] Moreover, the effects in essential phases of the scoring period were above the expected values according to Colby, also indicating synergism. […]

[2] = tested on: Pharbitis purpurea; experiment: Example 21 field trial, 4-leaf stage: herbicidal effect; assay type: in vivo; settings: 42 days after application
Experimental: as §1, §2, §3

[3] = tested on: summer wheat; experiment: Example 14 field trial, 2- to 4-leaf stage: crop damage; assay type: in vivo, Triticum aestivum; settings: 28 days after application
Experimental: The damage and development of all above-ground parts of the plants were recorded.
Crop plants were grown outdoors on plots under natural outdoor conditions, and seeds or rhizome pieces of typical harmful plants were laid out or the natural weed growth was utilized.

[4] = tested on: Sorghum verticilliflorum; experiment: Example 13 field trial, 2- to 4-leaf stage: herbicidal effect; assay type: in vivo; settings: 17 days after application
Experimental: as §1, §2
(§4) Crop plants were grown outdoors on plots under natural outdoor conditions, and seeds or rhizome pieces of typical harmful plants were laid out or the natural weed growth was utilized. Treatment with the compositions according to the invention was carried out after the harmful plants had emerged and the crop plants were, generally, at the 2- to 4-leaf stage; in some cases (as stated), application of individual active compounds or active compound combinations was carried out pre-emergence (cf. Section 1) or post-emergence (cf. Section 2) or as a sequential treatment partly pre-emergence and/or post-emergence. After the application, for example 2, 4, 6 and 8 weeks after the application, the effect of the preparations was scored visually by comparison with untreated controls (cf. scoring in Section 1). In the field trial as well, the compositions according to the invention have synergistic herbicidal activity against a broad spectrum of economically important weed grasses and broad-leaved weeds. […] Moreover, the effects in essential phases of the scoring period were above the expected values according to Colby, also indicating synergism. In contrast, the crop plants were, as a consequence of the treatments with the herbicidal compositions, damaged only to a small degree, if at all.

[5] = tested on: Galium aparine; experiment: Example 10 pre-emergence application, fall: herbicidal effect; assay type: in vivo; settings: 169 days after application
Excerpt: (§5) Seeds or rhizome pieces of monocotyledonous and dicotyledonous weed plants are placed in sandy loam soil in pots and covered with soil. The compositions, formulated in the form of concentrated aqueous solutions, wettable powders or emulsion concentrates, are then applied to the surface of the soil cover as aqueous solution, suspension or emulsion at an application rate of 600 to 800 l of water/ha (converted), in various dosages. After the treatment, the pots are placed in a greenhouse and kept under good growth conditions for the weeds. After the test plants have emerged, the damage to the plants or the negative effects on the emergence is scored visually after a test period of 3 to 4 weeks by comparison with untreated controls. As shown by the test results, the compositions according to the invention have good herbicidal pre-emergence activity against a broad spectrum of weed grasses and broad-leaved weeds.
as §1, §2, §4

[6] = tested on: Elusine indica; experiment: Example 18 field trial, 3-leaf stage: herbicidal effect; assay type: in vivo; settings: 100 g of ai/ha; 31 days after application
Experimental: as §1, §2, §3

[7] = tested on: winter barley; experiment: Example 16 field trial, post-emergence, 2- to 3-leaf stage: crop damage; assay type: in vivo, Hordeum vulgare; settings: 50 g of ai/ha; 69 days after application
Experimental: as §1, §2
(§6) Crop plants were grown outdoors on plots under natural outdoor conditions, and seeds or rhizome pieces of typical harmful plants were laid out or the natural weed growth was utilized. […] After the application, for example 2, 4, 6 and 8 weeks after the application, the effect of the preparations was scored visually by comparison with untreated controls (cf. scoring in Section 1). […]

[8] = tested on: Lamium amolexicaule; experiment: Example 15 field trial, 2- to 4-leaf stage: herbicidal effect; assay type: in vivo; settings: 28 days after application
Experimental: as §1, §2, §4

[9] = tested on: Papaver rhoeas; experiment: Example 16 field trial, post-emergence, 2- to 3-leaf stage: herbicidal effect; assay type: in vivo; settings: 50 g of ai/ha; 69 days after application
Experimental: as §1, §2, §4

[10] = tested on: Galium aparine; experiment: as above; assay type: in vivo; settings: 50 g of ai/ha; 69 days after application
Experimental: as §1, §2, §4

[11] = tested on: Anthemis arvensis; experiment: as above; assay type: in vivo; settings: 50 g of ai/ha; 69 days after application
Experimental: as §1, §2, §4

[12] = tested on: Myosotis arvensis; experiment: as above; assay type: in vivo; settings: 50 g of ai/ha; 69 days after application
Experimental: as §1, §2, §4

[13] = tested on: Lamium ssp.; experiment: as above; assay type: in vivo; settings: 50 g of ai/ha; 69 days after application
Experimental: as §1, §2, §4

[14] = tested on: Viola arvensis; experiment: as above; assay type: in vivo; settings: 50 g of ai/ha; 69 days after application
Experimental: as §1, §2, §4

[15] = tested on: Matricaria chamomilla; experiment: as above; assay type: in vivo; settings: 50 g of ai/ha; 69 days after application
Experimental: as §1, §2, §4

[16] = tested on: winter wheat; experiment: Example 9 field trials, application 1-3 leaf stage broad-leaved weeds: crop damage; assay type: in vivo, Triticum aestivum; settings: 100 g of ai/ha; 120 to 160 days after application
Experimental: as §1, §2, §3

[17] = tested on: Zea mays (corn); experiment: Example 17 field trial, pre-emergence: crop damage; assay type: in vivo; settings: 16 days after application
Excerpt: as §5
The herbicidal efficacy of the active compounds or active compound mixtures was scored visually using the treated plots in comparison to untreated control plots. The damage and development of all above-ground parts of the plants were recorded. […]
as §2, §6

`CC(C)(F)c1nc(N)nc(NC(CCc2ccccc2)C2CCC2)n1` (centres unmarked) [(A1), 4-amino-6-(1-fluoro-1-methylethyl)-2-(3-phenyl-1-cyclobutylpropylamino)-1,3,5-triazine] was tested, and the “damage, HORVW” value [1] was 0%, the “herbicidal effect, PHBPU” value ([2]; 25 g of ai/ha) was 90% and the “herbicidal effect, PHBPU” value ([2]; 50 g of ai/ha) was 95%. For the same molecule, the “herbicidal effect, PHBPU” value ([2]; 100 g of ai/ha) was 97%, the “damage, TRZAS” value ([3]; 25 g of ai/ha) was 2% and the “damage, TRZAS” value ([3]; 50 g of ai/ha) was 2%. For the same molecule, the “damage, TRZAS” value ([3]; 100 g of ai/ha) was 5%, the “herbicidal effect, SORVE” value ([4]; 62.5 g of ai/ha) was 35% and the “herbicidal effect, SORVE” value ([4]; 125 g of ai/ha) was 50%. The “herbicidal effect, GALAP” value ([5]; 50 g of ai/ha) was 45%, the “herbicidal effect, GALAP” value ([5]; 100 g of ai/ha) was 45% and the “herbicidal effect, ELEIN” value [6] was 0%. The “herbicidal effect (%), HORVW (crop)” value [7] was 0%, the “herbicidal effect, LAMAM” value ([8]; 25 g of ai/ha) was 60% and the “herbicidal effect, LAMAM” value ([8]; 50 g of ai/ha) was 74%. For the same molecule, the “herbicidal effect, LAMAM” value ([8]; 100 g of ai/ha) was 80%, the “herbicidal effect (%), PAPRH” value [9] was 96% and the “herbicidal effect (%), GALAP” value [10] was 66%. For the same molecule, the “herbicidal effect (%), ANTAR” value [11] was 0%, the “herbicidal effect (%), MYOAR” value [12] was 81% and the “herbicidal effect (%), LAMSS” value [13] was 53%. The “herbicidal effect (%), VIOAR” value [14] was 90%, the “herbicidal effect (%), MATCH” value [15] was 19% and the “damage, TRZAW” value [16] was 0%. The “damage, ZEAMA” value ([17]; 50 g of ai/ha) was 0% and the “damage, ZEAMA” value ([17]; 100 g of ai/ha) was 0%.
